This test deals with T1, StlA (PAL, phenylalanine ammonia lyase) (Photorhabdus laumondii, UniProt Q7N4T3).
T1 construct: gene plu2234; full-length, untagged; aTc-inducible low-copy plasmid in E. coli Nissle 1917; soluble cell lysate
T1 sequence (Q7N4T3 1-532): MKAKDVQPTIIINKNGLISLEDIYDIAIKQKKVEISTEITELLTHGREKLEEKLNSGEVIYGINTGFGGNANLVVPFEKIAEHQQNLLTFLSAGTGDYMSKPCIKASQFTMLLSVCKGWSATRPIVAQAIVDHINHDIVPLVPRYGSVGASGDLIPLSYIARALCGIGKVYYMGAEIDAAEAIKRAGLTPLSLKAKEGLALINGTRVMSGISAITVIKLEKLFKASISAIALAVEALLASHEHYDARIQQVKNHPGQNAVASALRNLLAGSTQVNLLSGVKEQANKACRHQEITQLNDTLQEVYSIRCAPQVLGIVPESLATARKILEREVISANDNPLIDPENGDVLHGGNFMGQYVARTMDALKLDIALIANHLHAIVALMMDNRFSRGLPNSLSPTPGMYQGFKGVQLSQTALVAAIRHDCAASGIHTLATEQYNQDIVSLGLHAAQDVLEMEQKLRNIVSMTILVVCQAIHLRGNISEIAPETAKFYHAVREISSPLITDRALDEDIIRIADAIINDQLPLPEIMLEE
The experiment in a line: TCA formation followed at A290, nonlinear Michaelis-Menten fit. As to conditions: soluble lysate of E. coli Nissle (EP2315), 10 µg total protein per well; M9 0.5% glucose, 37 °C. It is filed as biochemical. An excerpt: TCA formation followed at A290, nonlinear Michaelis-Menten fit on StlA (PAL, phenylalanine ammonia lyase)

Turning to `N[C@@H](Cc1ccccc1)C(=O)O` [Phe], the “KM (mM Phe)” value was found to be 1.69 ± 0.37 mM.

For the origin of these results see PMC8553829, “Improvement of a synthetic live bacterial therapeutic for phenylketonuria with biosensor-enabled enzyme engineering” (Nature Communications, 2021).
